# Test results: US6967196B1, “Sulfonamide compounds and uses thereof” (Bristol-Myers Squibb Company, priority 1999, dated 2005)
# Structures can show the parent of a compound that is named as a salt. Where two headings read alike, the source gives them in different places.
# Tested on: amyloid β production in transfected H4 (human neuroglioma) cells stably expressing APP constructs
# Assay: In vitro cell-based assay of inhibitors of amyloid β production (ELISA)
# Details: amyloid β in medium by ELISA, read-out: ACTIVITY (IC50, inhibition of amyloid β production)
# Protocol: In Vitro Cell-Based Assay of Inhibitors of Amyloid β Production
# Transfected H4 (human neuroglioma) cells stably expressing APP constructs are used to identify and assess inhibitors of Aβ production. In brief, cells lines are exposed to compounds, and the effect of each compound on amyloid β production is determined by measuring the amount of amyloid β produced using an enzyme linked immunosorbent assay (ELISA) that detects amyloid β (see, for example, Seubert et al., (1992) Nature, 359:325-327).
# Transfected cells that stably express wild-type and variant forms of APP are plated in 96-well format plates at a density sufficient for the rapid detection of the secreted amyloid β (experimentally predetermined for a particular stable cell population). Cells are plated at least six hours prior to the introduction of the test compound at which time the growth medium is replaced by fresh medium containing the compound to be tested. All synthetic agents are initially screened at doses ranging from 10-100 μM. Higher dilutions of agents can be used to minimize cytotoxicity. Incubation of cells with a test compound continues for approximately 16 hours at which time aliquots of medium from each well are removed and assayed for amyloid β.
# ELISA is carried out by methods known in the art (see, e.g., Haass et al., Antibodies: A Laboratory Manual, Harlow and lane, Editors, Cold Spring Harbor Press, 1988) The capture antibody is typically a mouse monoclonal (IgG1/kβ-APPa) which recognizes the carboxyl terminal epitope of amyloid β. The specificity of the capture antibody insures measurement of amyloid β without interference from other secreted APP fragments that share amino acid sequence (amyloid β 1-16) homology with amyloid β but lack the carboxy-terminal region. The detecting antibody is typically an affinity-purified rabbit polyclonal antibody that is specific for the amino terminus of amyloid β.
# Results from test compounds are compared to results obtained when cells are treated with control agents. Amyloid β levels are determined by comparison to a standard curve obtained by subjecting a range of known amounts of amyloid β to the ELISA.
# A compound is identified as “active” when it inhibits cellular production of amyloid β relative to levels in control samples by at least 50% at the initial tested concentration without significant cytotoxicity. Active compounds are then assayed in dose-response experiments to determine the lowest dose of compound necessary for inhibition of amyloid β production.
# [1] = transfected H4 cells stably expressing APP, approx. 16 h incubation
# [2] = transfected H4 cells stably expressing APP, approximately 16 hours incubation, Table B
# [3] = transfected H4 cells stably expressing APP, approximately 16 hours incubation
# [4] = transfected H4 cells stably expressing APP constructs, approximately 16 hours incubation
# [5] = Homo sapiens, 16 h, transfected H4 cells stably expressing APP, approximately 16 hours incubation, Table B
# [6] = Homo sapiens, 16 h, transfected H4 cells expressing APP, approximately 16 hours incubation
# [7] = Homo sapiens, 16 h, transfected H4 cells stably expressing APP, approx. 16 h incubation
molecule,measurement,setting,value
"N-{3-[2-(1-{[(4-chlorophenyl)sulfonyl]-2,5-difluoroanilino}ethyl)phenoxy]propyl}-3,5-dimethoxy-N-methylbenzamide [Example 802]",IC50,[1],100 to 500 nM
"COC(=O)[C@@H](NC(=O)CCCC[C@@H](C)N(c1cc(Cl)ccc1F)S(=O)(=O)c1ccc(Cl)cc1)C(C)C [Example 542, (R)-4-Chloro-N-(5-chloro-2-fluorophenyl)-N-[6-[N-(S)-[1-(methoxycarbonyl)-2-methylpropyl]amino]-1-methyl-6-oxohexyl]benzenesulfonamide]",IC50,[1],100 to 500 nM
"O=S(=O)(c1ccc(Cl)cc1)N(Cc1ccccc1OCCCN1CC=CCC1)c1ccccc1 [Example 289, 4-Chloro-N-{2-[3-(3,6-dihydro-1(2H)pyridinyl)propoxy]benzyl}-N-phenylbenzenesulfonamide Hydrochloride]",IC50,[2],25 to 50 nM
"N-{3-[2-({[(4-chlorophenyl)sulfonyl]-2,5-difluoroanilino}methyl)phenoxy]propyl}-N-methyl-1,3-benzodioxole-5-carboxamide [Example 903]",IC50,[3],> 500 nM
"CCS(=O)(=O)CCC[C@@H](C)N(c1cc(Cl)ccc1CO)S(=O)(=O)c1ccc(Cl)cc1 [Example 1217, 4-chloro-N-[5-chloro-2-(hydroxymethyl)phenyl]-N-[1(R)-methyl-(4-ethylsulfonyl)butyl]benzenesulfonamide]",IC50,[4],≤ 25 nM
"CC(C)Oc1c(NCCC[C@@H](C)N(c2cc(Cl)ccc2F)S(=O)(=O)c2ccc(Cl)cc2)c(=O)c1=O [Example 1122, 4-chloro-N-(5-chloro-2-fluorophenyl)-N-[4-(2-isopropoxy-3,4-dioxo-1-cyclobutenyl)amine-1(R)-methylbutyl]benzenesulfonamide]",IC50,[4],50 to 100 nM
"C[C@H](c1ccccc1CCC(=O)NCc1ccc2c(c1)OCO2)N(c1cc(F)ccc1F)S(=O)(=O)c1ccc(Cl)cc1 [Example 388, N-(1,3-benzodioxol-5-ylmethyl)-3-[2-((1R)-1-{[(4-chlorophenyl)sulfonyl]-2,5-difluoroanilino}ethyl)phenyl]propanamide]",IC50,[5],50 to 100 nM
"N-{3-[2-(1-{[(4-chlorophenyl)sulfonyl]-2,5-difluoroanilino}ethyl)phenoxy]propyl}-3-nitrobenzamide [Example 723]",IC50,[1],100 to 500 nM
C[C@H](C(=O)NCCc1ccccn1)N(c1cc(Cl)ccc1F)S(=O)(=O)c1ccc(Cl)cc1 [Example 1339],IC50,[6],100 to 500 nM
"S-methyl 2-[2-(1-{[(4-chlorophenyl)sulfonyl]-2,5-difluoroanilino}ethyl)phenoxy]ethyl(ethyl)thiocarbamate [Example 771]",IC50,[1],100 to 500 nM
"COC(=O)[C@H](CC(C)C)NC(=O)CCC[C@@H](C)N(c1cc(Cl)ccc1F)S(=O)(=O)c1ccc(Cl)cc1 [Example 1265, (R)-4-Chloro-N-(5-chloro-2-fluorophenyl)-N-[6-[N-(S)-[1-(methoxycarbonyl)-3-methylbutyl]amino]-1-methyl-5-oxopentyl]benzenesulfonamide]",IC50,[4],50 to 100 nM
"O=S(=O)(c1ccc(Cl)cc1)N(Cc1ccccc1OCCCn1ccnc1)c1ccccc1 [Example 302, 4-Chloro-N-{2-[3-(1H-imidazol-1-yl)propoxy]benzyl}-N-phenylbenzenesulfonamide Hydrochloride]",IC50,[2],50 to 100 nM
CC(C(=O)N[C@@H]1C[C@H]2CC[C@@H]1CC2)N(c1cc(Cl)ccc1F)S(=O)(=O)c1ccc(Cl)cc1 (some centres unmarked) [Example 1358],IC50,[6],100 to 500 nM
"O=S(=O)(c1ccc(Cl)cc1)N(Cc1ccccc1OCCCN1CCCCC1)C1CCCCC1 [Example 852, 4-chloro-N-cyclohexyl-N-{2-[3-(1-piperidinyl)propoxy]benzyl}benzenesulfonamide hydrochloride]",IC50,"Homo sapiens, 16 h, transfected H4 cells stably expressing APP, approximately 16 hours incubation",100 to 500 nM
"CCS(=O)(=O)CC[C@@H](C)N(c1cc(Cl)ccc1Cl)S(=O)(=O)c1ccc(Cl)cc1 [Example 1180, 4-chloro-N-[2,5-dichlorophenyl]-N-[1(R)-methyl-(3-ethylsulfonyl)propyl]benzenesulfonamide]",IC50,[4],≤ 25 nM
C[C@H](c1ccc(F)cc1CCCCS(=O)(=O)N1CCS(=O)(=O)CC1)N(c1cc(F)ccc1F)S(=O)(=O)c1ccc(Cl)cc1 [Example 1071],IC50,[3],> 500 nM
"2-((1R)-1-{[(4-chlorophenyl)sulfonyl]-2,5-difluoroanilino}ethyl)-5-fluorobenzyl bis(2-methoxyethyl)carbamate [Example 760]",IC50,[1],100 to 500 nM
"O=S(=O)(c1ccc(Cl)cc1)N(Cc1ccccc1OCCC1CCCCN1Cc1ccccc1I)c1cc(F)ccc1F (centres unmarked) [Example 672, 4-chloro-N-(2,5-difluorophenyl)-N-(2-{2-[1-(2-iodobenzyl)-2-piperidinyl]ethoxy}benzyl)benzenesulfonamide]",IC50,[7],100 to 500 nM
"CC(C)N(CCCn1ccnc1)C(=O)OC[C@@H](C)N(c1cc(Cl)ccc1CO)S(=O)(=O)c1ccc(Cl)cc1 [Example 1252, 4-Chloro-N-[5-chloro-2-(hydroxymethyl)phenyl]-N-[2-[[[N′-[3-(1H-imidazol-1-yl)propyl]-N′-(2-methylethyl)amino]carbonyl]oxy]-(R)-1-methylethyl]benzenesulfonamide]",IC50,[4],≤ 25 nM
"CCCCC(CC)C(=O)N(C)CCCOc1ccccc1CN(c1cc(F)ccc1F)S(=O)(=O)c1ccc(Cl)cc1 (centres unmarked) [Example 837, N-{3-[2-({[(4-chlorophenyl)sulfonyl]-2,5-difluoroanilino}methyl)phenoxy]propyl}-2-ethyl N-methylhexanamide]",IC50,[3],100 to 500 nM
"CC1(O)CCN(CCCOc2ccccc2CN(c2ccccc2)S(=O)(=O)c2ccc(Cl)cc2)CC1 [Example 312, 4-Chloro-N-{2-[3-(4-hydroxy-4-methyl-1-piperidinyl)propoxy]benzyl}-N-phenylbenzenesulfonamide Hydrochloride]",IC50,[2],50 to 100 nM
"CC(c1ccccc1OCCCCN(C)C(=O)CSc1ccccc1)N(c1cc(F)ccc1F)S(=O)(=O)c1ccc(Cl)cc1 (centres unmarked) [Example 384, N-{4-[2-(1-{[(4-chlorophenyl)sulfonyl]-2,5-difluoroanilino}ethyl)phenoxy]butyl}-N-methyl-2-(phenylsulfanyl)acetamide]",IC50,[5],50 to 100 nM
"CC(c1ccccc1OCCN(C)C(=O)NC(C)(C)C)N(c1cc(F)ccc1F)S(=O)(=O)c1ccc(Cl)cc1 (centres unmarked) [Example 724, N-[1-(2-{2-[[(tert-butylamino)carbonyl](methyl)amino]ethoxy}phenyl)ethyl]-4-chloro-N-(2,5-difluorophenyl)benzenesulfonamide]",IC50,[7],100 to 500 nM
"CSC1CCN(CCC[C@@H](C)N(c2cc(Cl)ccc2Cl)S(=O)(=O)c2ccc(Cl)cc2)C1 (stereo partly drawn) [Example 1134, 4-chloro-N-(2,5-dichlorophenyl)-N-[4-[(3-methylthio)-1-pyrrolidinyl]-1(R)-methylbutyl]benzenesulfonamide]",IC50,[4],100 to 500 nM
"N-{3-[2-({[(4-chlorophenyl)sulfonyl]-2,5-difluoroanilino}methyl)phenoxy]propyl}-2-methoxy-N-methylbenzamide [Example 775]",IC50,[1],100 to 500 nM
"CC(c1ccccc1OCCCN(C)S(=O)(=O)/C=C/c1ccccc1)N(c1cc(F)ccc1F)S(=O)(=O)c1ccc(Cl)cc1 (centres unmarked) [Example 773, 4-chloro-N-(2,5-difluorophenyl)-N-(1-{2-[3-(methyl{[(E)-2-phenylethyl]sulfonyl}amino)propoxy]phenyl}ethyl)benzenesulfonamide]",IC50,[1],100 to 500 nM
CC1CN(CCCCC[C@@H](C)N(c2cc(Cl)ccc2F)S(=O)(=O)c2ccc(Cl)cc2)CCS1(=O)=O (some centres unmarked) [Example 1274],IC50,[4],≤ 25 nM
C[C@H](c1ccc(CCCCNS(C)(=O)=O)cc1)N(c1cc(F)ccc1F)S(=O)(=O)c1ccc(Cl)cc1 [Example 1074],IC50,[3],> 500 nM
"CC(C)Oc1c(NCC[C@@H](C)N(c2cc(F)ccc2F)S(=O)(=O)c2ccc(Cl)cc2)c(=O)c1=O [Example 1141, 4-chloro-N-(2,5-difluorophenyl)-N-[3-(2-isopropoxy-3,4-dioxo-1-cyclobutenyl)amine-1(R)-methylpropyl]benzenesulfonamide]",IC50,[4],100 to 500 nM
